Consider two compounds from patent US20240285497A1, “METHOD FOR EVALUATING AN ABILITY OF A TEST SAMPLE TO TRIGGER A FOREIGN BODY REACTION IN THE SKIN, A METHOD FOR SCREENING A SUBSTANCE HAVING AN ABILITY TO INHIBIT A FOREIGN BODY REACTION IN THE SKIN, AND AN AGENT FOR INHIBITING A FOREIGN BODY REACTION IN THE SKIN” (priority 2021, published 2024).

Data set [1] has as its system artemin mRNA. The experiment in a line: Inhibition of FICZ-induced artemin mRNA expression in HaCaT cells, quantitative PCR. It counts as cell-based, human. The procedure: First, HaCaT cells (CLI; Catalogue No.: 300493) were suspended in a DMEM medium at the density of 1×10^5 cell/mL, and 100 μL of the thus obtained suspension was added to each well of white 96-well plates (Thermo Fisher Scientific, MA, U.S.A.; Catalogue No.: 136102) so that the number of the cells in each well was 10,000 cells/well. In accordance with the conventional method, the cells were incubated for 24 hours at 37° C. and 5% CO2. Thereafter, the DMEM medium was removed, and 100 μL of a new DMEM medium containing both FICZ at predetermined concentration (500 nM or 5,000 nM) and Fraglide-1 at a predetermined concentration (0 nM or 250 nM). After incubation for 24 hours at 37° C. and 5% CO2, the total RNA was extracted, cDNA was prepared, and quantitative PCR was carrier out using the obtained cDNA in the same manner as described in Experiment 2. In FIG. 7, the results obtained for each sample were shown as a relative value, with the expression level of artemin mRNA in HaCaT cells incubated 24 hours in DMEM medium containing neither FICZ nor Fraglide-1 set to 1.
As described above, Fraglide-1 inhibited production of artemin induced by FICZ. Then, the following experiment was conducted in order to quantitatively evaluated the effect of inhibiting artemin production exerted by Fraglide-1. Briefly, HaCaT cells were treated with FICZ and Fraglide-1 in the same manner as in Experiment 3-1 except that the concentration of FICZ was set to 5,000 nM and the concentration of Fraglide-1 was set to 0 μM, 0.01 μM, 0.1 μM, 1 μM, 10 μM, and 100 µM, and then the total RNA was extracted, cDNA was prepared, and quantitative PCR was carried out. Based on the obtained result, the inhibition rate (Inhibition (%)) of the artemin mRNA expression triggered by FICZ when a given concentration of Fraglide-1 was added to the cell culture medium together with 5,000 nM of FICZ was calculated in accordance with the following formula. […]

Data set [2] has as its system HaCaT cells. In words: Safety evaluation: cell viability of HaCaT cells by WST-1 method. Type of data set: cell-based, human. The note with it: 24 hours. The method, then: The safety of Fraglide-1 was examined by a viable cell counting method using a water-soluble tetrazolium salt (WST-1). Specifically, HaCaT cells were suspended in DMEM medium at the concentration of 1×10^5 cells/mL. The obtained cell suspension was seeded in a white 96-well plate (ThermoFisher Scientific; Catalogue No. 136102) in an amount of 100 μL per well so that the number of cells per well was 10,000 cells/well. After 24 hours incubation at 37° C. and 5% CO2 in accordance with a conventional method, DMEM medium was removed and then either 100 μL of DMEM medium containing Fraglide-1 at a predetermined concentration or, as a control, 100 μL of DMEM medium not containing Fraglide-1 was added, followed by further incubation for 24 hours at 37° C. and 5% CO2. After the incubation for 24 hours, the number of viable cells was measured by using a premix reagent containing WST-1 (“Premix WST-1 Cell Proliferation Assay System”, Catalogue No. MK400, Takara Bio Inc., Shiga, Japan) in accordance with the procedure described in Experiment 1-2. The results shown in FIG. 16 are the mean of values obtained from three independent experiments, and the error bars represent standard error (SE).

Data set [3] concerns XRE-NLuc::HaCaT cells. The experiment in a line: in vitro. The note with it: read-out: LC50; XRE-NLuc::HaCaT cells, median lethal concentration. The method, then:
After the above-described incubation for 24 hours, the number of cells in each well was counted by a colorimetric method based on the degradation of tetrazolium salt (WST-1) by mitochondrial dehydrogenase in viable cells. Specifically, 3 μL of Premix WST-1 (Product Name “Premix WST-1 Cell Proliferation Assay System”; Takara Bio Inc., Shiga, Japan; Catalogue No.: MK400) was added to each well of 96 well plates, and then the cells were cultured for 1 hour at 37° C., 5% CO2. Thereafter, 93 μL of cell culture supernatant was removed from each well to measure the absorbance of the supernatant in each well. The removed supernatants were transferred to transparent 96 well plates, and then the absorbance at 450 nm (A450) and, as a reference wavelength, the absorbance at 670 nm (A670) were measured using iMark microplate reader (Bio-Rad; Catalogue No.: 168-1130JA). A value (A450-A670) was obtained by subtracting the absorbance at 670 nm (A670) from the absorbance at 450 nm (A450). The relative viable cell count (%) was expressed as a relative value with the value (A450-A670) obtained for the negative control as 100%.
The ability of each test sample to trigger a foreign body reaction was evaluated using XRE-NLuc::HaCaT cells in the same manner as in Experiment 1-2, except that I3C (Indole-3-carbinol, CAS RN: 700-06-1), ITE (2-(1′H-indole-3′-carbonyl)-thiazole-4-carboxylic acid methyl ester, CAS RN: 448906-42-1), and Indirubin (CAS RN: 479-41-4) were used instead of FICZ as test samples and the amount of each test sample added to the DMEM medium was appropriately changed.

Consider `O=C1C=C(c2ccccc2)C(O)O1` (stereo not drawn) [Fraglide-1, 5-hydroxy-4-phenyl-2(5H)butenolide], for which the “Inhibition (%) of artemin mRNA expression triggered by FICZ” value in data set [1] (100 nM (0.1 μM) Fraglide-1, 5,000 nM FICZ) was “approximately 50%”. Moreover, the “expression level of artemin mRNA compared to cells without FICZ” value in data set [1] (250 μM Fraglide-1 plus 500 nM or 5,000 nM FICZ, 24 hours) is “no increase in the expression level of artemin mRNA was observed”. In addition, in data set [1] (Fraglide-1 0.01-100 μM, 5,000 nM FICZ), the “inhibition of FICZ-induced expression of artemin, dependence on concentration” value was “in the concentration dependent manner”. Moreover, the cell viability result in data set [2] (500 μM, HaCaT cells) is given as “more than 50%”. The CC50 in data set [2] (read-out: LC50 (Median Lethal Concentration) against HaCaT cells) is > 500 µM.
Regarding 6-formylindolo[3,2-b] carbazole [FICZ], the CC50 in data set [3] is > 5 µM.
